Data set [1] relates to SH-SY5Y cells. Nature of the data set: Real-time qPCR of mitochondrial rRNA and humanin transcripts. The conditions noted are these: IMT1 co-treated with HN for 24 h, dose-dependent. Format: cell-based, human. As to the method:
For real-time qPCR, total RNA was extracted using TRIzol reagent (Thermo Fisher Scientific). cDNA was synthesized using a cDNA synthesis kit (Bioneer Corporation), according to the manufacturer's protocol. The mRNA levels were analyzed in a LightCycler 96 (Roche, Basel, Switzerland) using SYBR Green I master mix and SensiFAST™ SYBR® No-ROX Kit (Bioline, Paris, France). B2M (beta-2-microglobulin) gene expression was used to normalize gene expression data. The primer sequences used in this experiment are in Table S2.
On the technique in general: Quantitative PCR measures a nucleic acid by following its amplification.

For data set [2], the system named is differentiated PC12 cells. Description: Pathway inhibitors on HN effects in MPP+-challenged differentiated PC12 cells. It is filed as cell-based, rat. The conditions noted are these: for neuroprotective effect of HN against MPP+ neurotoxicity (MTT viability): inhibitor 2 h before HN 10 μM, then MPP+ 1 mM 24 h, MK2206 1 μM, wortmannin 1 μM, U0126 10 μM. The method, then:
For neuronal differentiation of PC12 cells, the cells were grown in DMEM containing 1.5% horse serum, 1.5% FBS, 1% P/S, and 100 ng/mL nerve growth factor (NGF, Thermo Fisher Scientific) every 2 days. PC12 cells were differentiated for 7 days and used for subsequent experiments.
Mouse brain tissue samples and cells were homogenized in radioimmunoprecipitation assay (RIPA) buffer (Cell Signaling, Danvers, MA, USA) in the presence of a protease and phosphatase inhibitor cocktail (Thermo Fisher Scientific). The samples were sonicated on ice, and the supernatant was collected after centrifugation at 4°C at 10,000 g for 5 min. The protein samples were loaded and separated using Tris-glycine SDS-PAGE. To detect the HN peptide, the proteins were separated into three layers of tricine SDS-PAGE, as previously described. The separated proteins were transferred to nitrocellulose membranes (GenDEPOT, Barker, TX, USA). The membranes were blocked for 0.5 h, followed by incubation with appropriate primary antibodies overnight at 4°C. The primary antibodies used were as follows: anti-tyrosine hydroxylase (Cat # P40101, Pel-Freez Biologicals), anti-HN (Cat # RA19000, Neuromics), anti-β-actin (Cat # GTX109639, GeneTex, Irvine, CA, USA), and anti-GAPDH (Cat # AM4300, Thermo Fisher Scientific). After washing, the membranes were incubated with horseradish peroxidase-labeled secondary antibodies (Cell Signaling Technology) and visualized using enhanced chemiluminescence reagents (DoGen, Seoul, South Korea). The results were analyzed using the ImageJ densitometry system. In order to detect circulating humanin in human plasma samples, proteins were extracted by trichloroacetic acid (TCA) precipitation. Loading of an equal amount of protein was confirmed by Coomassie staining of plasma samples which were depleted of albumin by Minute™ Albumin Depletion Reagent (Invent Biotechnologies, Plymouth, MN, USA).
Following treatment with the aforementioned reagents, the cells were washed and treated with 3-(4,5-dimethylthiazol-2-yl)-2,5-diphenyl-tetrazolium bromide (MTT, Thermo Fisher Scientific). Briefly, the cells were seeded in a 96-well plate at a density of 5 × 10^3 cells/well. After 24 h, a neurotoxin 1-methyl-4-phenylpyridinium (MPP^+) (Sigma-Aldrich) was applied to induce toxicity in neuronal cells. Next, the cells were incubated with MTT for 4 h, and formazan crystals were solubilized using DMSO. Absorbance was measured using a multi-plate reader at a wavelength of 570 nm, and the viability of the cells was recorded as a percentage of the control.

Data set [3] deals with transgenic mouse model of AD. The conditions noted are these: without altering Aβ production; cited from earlier work. The text has this:
Humanin is the first peptide representing a novel group of naturally occurring bioactive peptides encoded by the mitochondrial genome, termed MDPs. Since its discovery in 2001 [12], humanin has been proposed as a potential protective peptide for neurological disorders, cardiovascular diseases, and metabolic dysfunction. The central role of humanin in the protective response has been extensively studied in AD [13]. Maftei et al., using affinity mass spectrometry, identified that humanin can directly bind to amyloid β (Aβ), which subsequently disrupts the oligomerization of Aβ [57]. Further ...

The subject of data set [4] is SH-SY5Y cells. Nature of the data set: FITC-HN immunofluorescence in cells. Format: cell-based, human. The method, then: For HN treatment, HN was synthesized as per Fmoc-based SPPS at GL Biochem (Shanghai, China). The lyophilized synthesized HN peptide or HN peptide conjugated with fluorescein isothiocyanate (FITC-HN) was dissolved in Dimethyl sulfoxide (DMSO) and incubated at 37 ℃ with mild stirring (100 rpm) for 1 h to prepare a 10 mM stock solution. The stock solutions were kept at -20 ℃ until use.
For staining, the cells were seeded on PDL-coated glass slides and treated as indicated above. The samples were fixed using methanol and permeabilized using 0.1% Triton X-100 in PBS. […] Fluorescent images were captured at the Neuroscience Translational Research Solution Center (Busan, South Korea) using an LSM 700 confocal microscope (Zeiss, Jena, Germany). The mitochondrial network morphology was assessed using the FIJI/ImageJ software as described previously.

A short description of data set [5]: Brain delivery after intranasal FITC-HN. Format: in vivo, mouse. The method, then:
For intranasal HN treatment, the synthetic HN peptide was delivered according to a procedure reported by Capsoni et al. The synthetic HN peptide was diluted in ddH2O to a concentration of 0.1 and 5 mg/kg for mice (total volume of 40 μL) at 37 ℃ with mild stirring. The mice were held firmly in one hand in a supine position with their head at 90°. Synthetic HN was administered in the form of 5-μL drops over 20 min in alternating nostrils every 3 min. After administration, the heads of the mice were held in the same position to prevent loss of the applied solution from the nares.
To stain the mouse brain tissue samples, transcardial perfusion was performed using PBS and 4% paraformaldehyde in PBS. The brain and trigeminal ganglia were removed, post-fixed using 4% paraformaldehyde in PBS, and stored in a 30% sucrose solution at 4 ℃ until they sank. Coronal sections were prepared (thickness: 10 µm) using a sliding microtome. After blocking with 5% BSA, the samples were incubated with the appropriate primary antibody as mentioned above. […] To enhance immune signals in immunohistochemistry, a Vectastain Elite ABC Standard Kit (Vector Laboratories) was used, as per the manufacturer's instructions. The stained sections were scanned using a Pannormic MIDI scanner (3[…], Budapest, Hungary) at the Neuroscience Translational Research Solution Center. Unbiased stereological analyses were performed as previously described. […] Fluorescent images were captured at the Neuroscience Translational Research Solution Center (Busan, South Korea) using an LSM 700 confocal microscope (Zeiss, Jena, Germany). Mitochondrial network morphology was further assessed using the FIJI/ImageJ software as described previously.
A commercially available ELISA kit (MyBioSource, San Diego, CA, USA) was used to measure plasma and brain HN levels. To measure the protein levels of HN, brain homogenates (100 μg protein/well) and 100 μL of plasma samples were loaded onto competitive ELISA plates according to the manufacturer's instructions. The absorbance was measured using a microplate reader (Molecular Devices, Sunnyvale, CA, USA) at a wavelength of 450 nm.

[6] abbreviates: wortmannin 1 μM pre-treatment, HN 10 μM, MPP+ 1 mM.

Entries after “also recorded” stand apart in the source; their conditions may differ.

On to `Cc1ccccc1-c1cc(=O)oc2cc(OC(C)C(=O)N(C)C)ccc12` (stereo not shown) [IMT1, reference compound], for which the “humanin transcripts induced by HN peptide” value with SH-SY5Y cells [1] was “markedly attenuated humanin transcripts”.

Turning to `NC1(c2ccc(-c3nc4ccn5c(=O)[nH]nc5c4cc3-c3ccccc3)cc2)CCC1` [MK-2206], the “neuroprotective effect of HN against MPP+ neurotoxicity (MTT viability)” value (“neuroprotective effect of HN” below) in data set [2] is given as “abolished the neuroprotective effect of HN”.

As to `N#CC(=C(/N)Sc1ccccc1N)/C(C#N)=C(/N)Sc1ccccc1N` [U0126], the “neuroprotective effect of HN” value in data set [2] is “did not alter cell viability”.

Take `COC[C@H]1OC(=O)c2coc3c2[C@@]1(C)C1=C(C3=O)[C@@H]2CCC(=O)[C@@]2(C)C[C@H]1OC(C)=O` [wortmannin]: the “neuroprotective effect of HN” value in data set [2] is “abolished the neuroprotective effect of HN”. The “induction of intracellular humanin by HN treatment, western blot” value in data set [2] (wortmannin 1 μM pre-treatment 1 h, HN 10 μM, 24 h, MPP+-exposed cells) was “significantly inhibited; also recorded: blocked the induction of HN expression”. For the same molecule, in data set [2] (setting [6]), the HN-enhanced mitochondrial mass entry is given as “significantly blocked the impact of HN on enhancing mitochondrial mass” and the “HN-promoted mitochondrial biogenesis, western blot” value is “significantly blocked”.

In the case of “S14G-HN: a highly potent human derivative (MAPRGFSCLLLLTGEIDLPVKRRA; Humanin; UniProt Q8IVG9 1-24, looked up, variant S14G)”, in data set [3], the “total amyloid plaque burden in cerebellum, hippocampus and cortex” value is “significantly reduced the total amyloid plaque burden”.

With “fluorescein isothiocyanate-conjugated humanin [FITC-HN]”, the “intracellular humanin signal (antibody staining)” value in the data set with SH-SY5Y cells [4] (24 h FITC-HN treatment, untreated cells show weak signal) was “strong signal of intracellular humanin”. Besides, the “intracellular FITC fluorescence signal” value in the data set on SH-SY5Y cells [4] (24 h after FITC-HN treatment, suggests degradation of the FITC-HN peptide) was “no detectable fluorescent signal”; with SH-SY5Y cells [4] (within 30 min of FITC-HN treatment, confocal immunofluorescence) it was “strong intracellular fluorescence signal”. Further, the “FITC-HN distribution in trigeminal nerve endoneurium” value in data set [5] (cross-sections of trigeminal nerves after intranasal administration, transgenic PD mice) is listed as “diffuse to punctate in the perineural space of the endoneurium”. The “FITC-HN signal in trigeminal nerve perineurium region” value in data set [5] (cross-sections of trigeminal nerves, compared with endoneurium) is reported as “more prominent FITC-HN signal”. Also, the “duration of widespread brain distribution after intranasal administration” value in data set [5] (human α-Syn transgenic PD mice, ELISA of brain regions (CB, OB, ST, HIP, SN, CTX)) was “up to 1 h”. The “time after intranasal injection at which FITC-HN is detectable in midbrain (VTA, aqueduct)” value in data set [5] (human α-Syn-overexpressing transgenic PD mice, fluorescence imaging) was at most 30 min. The “FITC-HN localisation in brain parenchyma” value in data set [5] (within 30 minutes after intranasal treatment, GFAP staining) is recorded as “found in microvascular endothelial cells surrounded by astrocytic endfeet”.
